Data as given in paper PMC7413297 (Journal of immunology (Baltimore, Md. : 1950), 2020).
Like-named read-outs stand apart in the source and are kept apart here. Ends that are not written are not given here. Peptide text beside a SMILES is read from it.

Target: HLA A*02:01 class I molecules (Homo sapiens, UniProt P04439, D140Y/D185E/D98H/E176V/E277Q/G131W/G231S/I119V/I121R/I166T/I218V/L300P/L318F/N151K/N90K/P208A/P217A/Q86G/Q94H/R138H/R169H/T345S)
Assay: MHC-peptide competitive binding assay
[1] = as standard assay but excluding protease inhibitors
[2] = reducing conditions, 1 mM 2-ME added
[3] = IC50 2-ME, reducing conditions, 1 mM 2-ME added
[4] = IC50 No Protease Inhibitors, as standard assay but excluding protease inhibitors

IC50 No Protease Inhibitors [1] | IC50 2-ME [2] | IC50 [µM] | IC50 [3] [µM] | IC50 [4] [µM] | Compound
– | – | 0.458 | 0.304 | 0.323 | CC[C@H](C)[C@H](N)C(=O)N[C@@H](CC(C)C)C(=O)N[C@@H](CS)C(=O)N[C@@H](CCC(=O)O)C(=O)N[C@H](C(=O)N[C@@H](CS)C(=O)N[C@@H](CC(C)C)C(=O)N[C@H](C(=O)N[C@H](C(=O)O)C(C)C)[C@@H](C)CC)[C@@H](C)O [reference compound] (H-ILCETCLIV-OH)
– | – | 0.206 | 0.244 | 0.582 | CC[C@H](C)[C@H](N)C(=O)N[C@@H](CC(C)C)C(=O)N[C@@H](CS)C(=O)NCC(=O)N[C@H](C(=O)N[C@@H](CS)C(=O)N[C@@H](CC(C)C)C(=O)N[C@H](C(=O)N[C@H](C(=O)O)C(C)C)[C@@H](C)CC)[C@@H](C)O [reference compound] (H-ILCGTCLIV-OH)
– | – | – | 12.6 | 3.09 | ACDPHSGHFV [reference compound]
17,100 ng/ml | 13,400 ng/ml | – | – | – | BISSBNPNP
121 ng/mL | 93 ng/mL | – | – | – | BQWGRLWQL
– | – | 9.01 | 0.907 | 1.01 | HMTEVVRRC [reference compound]
58 ng/mL | 82 ng/mL | – | – | – | ILBETCLIV
11 ng/mL | 27 ng/mL | – | – | – | RLPRIFCSB
– | – | 0.454 | 0.0302 | 0.121 | VLPDVFIRC [reference compound]

The remaining lines, values behind:

Compound | IC50 No Protease Inhibitors [1] | IC50 2-ME [2] | IC50 [µM] | IC50 [3] [µM] | IC50 [4] [µM]
1LBETBLIV | 14 ng/mL | 24 ng/mL | – | – | –
BISSBNPNL | 604 ng/mL | 1,260 ng/ml | – | – | –
BISSCNPNL | 573 ng/mL | 250 ng/mL | – | – | –
CISSBNPNL | 1,047 ng/ml | 618 ng/mL | – | – | –
CQWGRLWQL [reference compound] | – | – | 1.2 | 0.13 | 0.952
ILBGTBLIV | 733 ng/mL | 1,547 ng/ml | – | – | –
ILCETBLIV | 104 ng/mL | 93 ng/mL | – | – | –
ILCGTBLIV | 839 ng/mL | 885 ng/mL | – | – | –
RLPRIFBSB | 7.2 ng/mL | 14 ng/mL | – | – | –
SCSRAIPQV [reference compound] | – | – | 1.53 | 0.207 | 0.551
SCSRAVPQV [reference compound] | – | – | 12.3 | 2.48 | 7.35
SLLMWITQB | 94 ng/mL | – | – | – | –
VLPDVFIRB | 3.3 ng/mL | 2.5 ng/mL | – | – | –
